Reference: patent US11471460B2, “Autophagy modulators for use in treating cancer” (The United States of America,as represented by the …, priority 2017, dated 2022)

Experiments:
lysosomes in U2OS cells = experiment: Ratiometric analysis of lysosomal pH (Oregon Green 488 dextran); type: cell-based, human; conditions: 1 μM
Experimental: U2OS cells were cultured for 4 hr with vehicle, 1 μM compound 1, or 50 mM ammonium chloride. The results of two independent experiments were averaged together. Data were analyzed by one-way ANOVA (p=0.0005) and Tukey's post-hoc test (p<0.0001). Scale bars indicate 10 μm. The results of three independent experiments were averaged together. […] Cells that had been transfected with LAMP1-RFP expression vector were then stained with LysoSensor Green DND-189, a fluorescent probe that fluoresces only in the acidic compartments of live cells. […] Bars represent 20 μm.
To determine the pH of individual lysosomes, dual-wavelength ratio imaging was conducted as previously describe (102), with minor modifications. U2OS and RAW264.7 cells were cultured in imaging chambers (Cellvis, Mountain View Calif., Cat #C4-1.5/h-N) in complete culture medium at 37° C. and 5% CO2. Cells were incubated overnight with 50 μg/mL Oregon Green 488 dextran (Invitrogen, Carlsbad, Calif., D7170). The following day, the cells were cultured with dextran-free complete culture medium for at least 2 h to ensure lysosomal targeting of the probe. Cells were then cultured with compound 1 for the indicated times and concentrations. […]

468 human kinases = experiment: DiscoverX KINOMEscan profile at 10 μM; type: binding; conditions: panel of 468 human kinases
Experimental: Each kinase was tagged with a unique DNA sequence that allowed the amount of protein bound to the solid support to be quantified by PCR. The top three targets for compound 1 were PIKFYVE, PIP4K2C and MTOR. […] Dissociation constants (Kd) were determined from the amount of kinase captured on the solid support as a function of the test compound concentration (nM) on a log10 scale. Mean Kd values (±range) are given for each compound. The ratio of PIP4K2C to PIKFYVE indicates the relative specificity for these two kinases.
To address this hypothesis, a panel of 468 human kinases were screened for their ability to bind compound 1. […] The top two candidates were PIKFYVE (phosphoinositide kinase FYVE-type zinc finger containing) and PIP4K2C (phosphatidylinositol-5-phosphate 4-kinase). PIKFYVE is a kinase that is essential for mouse development (49) and that prevents endosome enlargement and cytoplasmic vacuolization (50, 51). PIP4K2C is a kinase that is not essential for mouse growth and viability, but it is essential for the immune system (52), mTORC1 signaling (53), and regulation of autophagy (54). The third candidate was MTOR, a kinase that regulates autophagy (55). Therefore, the binding constants (Kd) for all five members of the compound 1-family were determined for each of these three proteins from two independent titration curves, as shown for compound 1.

osteosarcoma U2OS cells = experiment: U2OS cell proliferation; type: cell-based, human
Excerpt: These effects are dependent on the compound selected, its concentration and the length of time cells are exposed to the compound.
(§1) Cells were obtained from the American Type Culture Collection. BORCS5-KO HeLa cells have been described previously. Osteosarcoma U2OS were routinely seeded in 6-well plates (0.5×10^5 cells/well) and cultured in Dulbecco's Modified Eagle's medium supplemented with L-Glutamine, 4.5 g/L Glucose, Sodium Pyruvate, Phenol Red, and either heat-inactivated or normal 10% fetal calf serum at 37° C. in 5% CO2. Approximately 15-19 hours later, the indicated compound was added in 1:1000 dilutions. Results were the same using either heat-inactivated or normal fetal calf serum. Melanoma A375, embryonic kidney 293T and human foreskin fibroblast Hs27 cells were cultured in the same medium, except that cells were seeded into 12-well plates at 10^3 cells/well.

melanoma A375 cells [1] = experiment: A375 cell proliferation (crystal violet plate assay); type: cell-based, human
melanoma A375 cells [2] = experiment: A375 cell viability (CellTiter-Glo ATP, trypan blue live cells); type: cell-based, human; conditions: 0.1 μM
Experimental: To reveal viability, cells were seeded into 96-well plates (1,000 cells/well), and the indicated compound was added the following day. Cells were cultured for four days before quantification of total cellular ATP. […] In separate 12-well plates, attached cells were collected by trypsinization, combined with unattached cells, and stained with trypan blue to identify dead cells. Vehicle was plotted as 0.001 μM compound in order to apply a logarithmic scale. Data were plotted as the mean±SEM for three independent experiments.
as §1, with “Results were the same using either heat-inactivated or normal fetal calf serum.” left out

melanoma A375 tumors = experiment: Expansion of preformed A375 tumors in inbred nude mice; type: in vivo; conditions: 20 or 40 mg/kg intraperitoneally each day for 14 days
Experimental: (A) Melanoma A375 cells were cultured to 80% confluency and then inoculated subcutaneously into both flanks of inbred nude mice. Palpable tumors (˜40-50 mm^3) appeared within 7 days. (B) Either vehicle or 20 or 40 mg of compound 1 per kg of the mouse was injected intraperitoneally each day for a period of 14 days. Compound 1 was dissolved in sunflower seed oil. Tumors were excised on day 21. […] Error bars indicate the SEM for 6 tumors.
To determine whether or not compound 1 could inhibit expansion of a preformed tumor that arose from autophagy-dependent cancer cells, melanoma A375 cells were inoculated into the flanks of immuno-compromised mice and allowed to form a palpable tumor. Mice were then injected intraperitoneally once a day with varying amount of compound 1.

[3] = Viability of A375 cells after pretreatment, trypan blue exclusion; type: cell-based; conditions: human, A375 melanoma cells, vehicle 94%, read-out: Viable cells after pretreatment
Excerpt: Viability was quantified by trypan blue dye exclusion method. The images confirmed the presence of cytoplasmic vacuolization occurred only in the compound 1 treated cells. […] The left flank received cells pretreated with vehicle and the right flank received cells pretreated with compound 1. At 27 days later, mice were photographed, and tumors excised. […] Error bars indicate the SEM for 5 tumors.
To determine whether or not compound 1 could inhibit progression of a tumor that arose from autophagy-dependent cancer cells, melanoma A375 cells were pretreated with either vehicle or compound 1 and then assayed for their ability to produce a tumor. Pretreatment consisted of culturing A375 cells for 8 hours with 10 μM compound 1. The cells were then recovered by trypsinization and their viability confirmed by trypan blue exclusion. […] The cells were then inoculated subcutaneously into the flanks of immuno-compromised mice.

- Number of kinases with binding affinities of 25% or greater (468 human kinases): ten
- Ill effects on mice (melanoma A375 tumors): no exhibited ill effects
Compound: C1=Nc2ccccc2/C1=C/NNc1nc(Nc2ccccc2)nc(N2CCOCC2)n1 [compound 1]
- Mean pH of lysosomes (lysosomes in U2OS cells; 4 h, untreated cells 5.3): 5.0
- Effect on lysosomal acidity (lysosomes in U2OS cells; 4 hours): did not affect lysosomal acidity significantly
- Efficacy at inhibiting U2OS cell proliferation relative to HCQ or CQ (osteosarcoma U2OS cells): 21 times
- Effect on U2OS cells (osteosarcoma U2OS cells; 0.1 μM): reduced the proliferation rate
- Efficacy at arresting growth and proliferation relative to HCQ and CQ (osteosarcoma U2OS cells; cancer cells that depend on autophagy but are not addicted): 20 ×
- Inhibition of proliferation of melanoma A375 cells (melanoma A375 cells [1]): inhibited A375 cell proliferation
- Efficacy at inhibiting A375 cell proliferation relative to HCQ or CQ (melanoma A375 cells [1]; plate assays): at least 100 times
- Effect on Melanoma A375 cells (melanoma A375 cells [2]): killed
- Expansion of preformed tumors (melanoma A375 tumors; inbred nude mice): inhibited by compound 1 in a dose dependent manner
- viability at 8 h, 10 µM [3]: 92%
